Test results published in patent publication US20030203966A1, “Nitromethylthiobenzene derivatives as aldose reductase inhihibitors” (priority 1996, published 2003).
Counter-ions that a name gives are not always drawn.

melting point | Structure (SMILES)
158 to 159 °C | Cc1cc(NS(=O)(=O)c2cccs2)cc(C)c1S(=O)(=O)C[N+](=O)[O-] [Example 32, N-[3,5-Dimethyl-4-[(nitromethyl)sulphonyl]phenyl]-2-thiophenesulphonamide]
167 to 169 °C | Cc1cc(NS(=O)(=O)c2cc(F)c(Br)cc2F)cc(C)c1S(=O)(=O)C[N+](=O)[O-] (as salt: acetate) [Example 27, 4-Bromo-2,5-difluoro-N-[3,5-dimethyl-4-[(nitromethyl)-sulphonyl]phenyl]benzenesulphonamide]
150 to 155 °C | Cc1ccc(S(=O)(=O)NC(=O)Nc2cc(C)c(S(=O)(=O)C[N+](=O)[O-])c(C)c2)cc1 [Example 21, 1-[3,5-Dimethyl-4-[(nitromethyl)sulphonyl]phenyl]-3-[(4-methylphenyl)sulphonyl]urea]
197 to 199 °C | Cc1cc(NC(=O)CC(=O)Nc2cc(C)c(S(=O)(=O)C[N+](=O)[O-])c(C)c2)cc(C)c1S(=O)(=O)C[N+](=O)[O-]
132 to 134 °C | Cc1cc(NS(=O)(=O)c2cc(F)ccc2F)cc(C)c1S(=O)(=O)C[N+](=O)[O-] [Example 28, 2,5-Difluoro-N-[3,5-dimethyl-4-[(nitromethyl)sulphonyl]phenyl]benzenesulphonamide]
124 to 130 °C | Cc1cc(NS(=O)(=O)Cc2cccc(CS(=O)(=O)Nc3cc(C)c(S(=O)(=O)C[N+](=O)[O-])c(C)c3)c2)cc(C)c1S(=O)(=O)C[N+](=O)[O-]
179 to 181 °C | Cc1cccc(S(=O)(=O)Nc2cc(C)c(S(=O)(=O)C[N+](=O)[O-])c(C)c2)c1 [Example 6, N-[3,5-Dimethyl-4-[(nitromethyl)sulphonyl]phenyl]-3-methylbenzenesulphonamide]
209 to 211 °C | CC(=O)Nc1ccc(S(=O)(=O)Nc2cc(C)c(S(=O)(=O)C[N+](=O)[O-])c(C)c2)cc1Cl [Example 43, N-[2-Chloro-4-[3,5-dimethyl-4-[(nitromethyl)sulphonyl]-phenylsulphamoyl]phenyl]acetamide]
160 to 162 °C | Cc1cc(NS(=O)(=O)c2ccc(Cl)cc2)cc(C)c1S(=O)(=O)C[N+](=O)[O-] [Example 5, 4-Chloro-N-[3,5-dimethyl-4-[(nitromethyl)sulphonyl]-phenyl]benzenesulphonamide]
108 to 110 °C | CC(=O)Nc1cccc(S(=O)(=O)Nc2cc(C)c(S(=O)(=O)C[N+](=O)[O-])c(C)c2)c1 [Example 50, N-[3[[3,5-Dimethyl-4-[(nitromethyl)sulphonyl]phenylamino]sulphonyl]phenyl]acetamide]
146 to 148 °C | Cc1cc(NS(=O)(=O)Cc2ccccc2C(F)(F)F)cc(C)c1S(=O)(=O)C[N+](=O)[O-] [Example 48, N-[3,5-Dimethyl-4-[(nitromethyl)sulphonyl]phenyl]-(2-trifluoromethylphenyl)methanesulphonamide]
187 to 188 °C | Cc1cc(NS(=O)(=O)c2ccc(C(F)(F)F)cc2)cc(C)c1S(=O)(=O)C[N+](=O)[O-] [Example 35, N-[3,5-Dimethyl-4-[(nitromethyl)sulphonyl]phenyl]-4-(trifluoromethyl)benzenesulphonamide]
128 to 130 °C | Cc1cc(NS(=O)(=O)c2c(F)c(F)c(F)c(F)c2F)cc(C)c1S(=O)(=O)C[N+](=O)[O-] [Example 37, N-[3,5-Dimethyl-4-[(nitromethyl)sulphonyl]phenyl]-2,3,4,5,6-pentafluorobenzenesulphonamide]
146 to 148 °C | Cc1cc(NS(=O)(=O)c2ccccc2)cc(C)c1SC[N+](=O)[O-] [Example 3, N-[3,5-Dimethyl-4-[(nitromethyl)thio]phenyl]benzenesulphonamide]
167 to 169 °C | Cc1ccccc1CS(=O)(=O)Nc1cc(C)c(S(=O)(=O)C[N+](=O)[O-])c(C)c1 [Example 51, N-[3,5-Dimethyl-4-[(nitromethyl)sulphonyl]phenyl]-(2-methylphenyl)methanesulphonamide]
> 50 °C (dec.) | Cc1cc(NS(=O)(=O)c2ccccc2)cc(C)c1[S+]([O-])C[N+](=O)[O-] (centres unmarked) [Example 4, N-[3,5-Dimethyl-4-[(nitromethyl)sulphinyl]phenyl]-benzenesulphonamide]
152 to 154 °C | Cc1cc(NS(=O)(=O)Cc2ccc(Br)cc2F)cc(C)c1S(=O)(=O)C[N+](=O)[O-] [Example 52, 4-Bromo-N-[3,5-dimethyl-4-[(nitromethyl)sulphonyl]-phenyl]-(2-fluorophenyl)methanesulphonamide]
126 to 128 °C | Cc1cc(NS(=O)(=O)CC2CCCCC2)cc(C)c1S(=O)(=O)C[N+](=O)[O-] [Example 53, N-[3,5-Dimethyl-4-[(nitromethyl)sulphonyl]phenyl]-cyclohexylmethanesulphonamide]
180 to 182 °C | Cc1cc(NS(=O)(=O)c2ccc(OC(F)(F)F)cc2)cc(C)c1S(=O)(=O)C[N+](=O)[O-] [Example 36, N-[3,5-Dimethyl-4-[(nitromethyl)sulphonyl]phenyl]-4-(trifluoromethoxy)benzenesulphonamide]
224 to 226 °C | Cc1cc(NC(=O)Nc2cc(C)c(S(=O)(=O)C[N+](=O)[O-])c(C)c2)cc(C)c1S(=O)(=O)C[N+](=O)[O-]
191 to 192 °C | Cc1cc(NS(=O)(=O)c2cccc(S(=O)(=O)Nc3cc(C)c(S(=O)(=O)C[N+](=O)[O-])c(C)c3)c2)cc(C)c1S(=O)(=O)C[N+](=O)[O-]

melting point | Structure (SMILES)
208 to 215 °C | Cc1cc(NS(=O)(=O)c2ccc3ccccc3c2)cc(C)c1S(=O)(=O)C[N+](=O)[O-] [Example 15, N-[3,5-Dimethyl-4-[(nitromethyl)sulphonyl]phenyl]-2-naphthalenesulphonamide]
174 to 176 °C | Cc1cc(NS(=O)(=O)/C=C/c2ccccc2)cc(C)c1S(=O)(=O)C[N+](=O)[O-] [Example 19, (E)-N-[3,5-Dimethyl-4-[(nitromethyl)sulphonyl]phenyl]-styrenesulphonamide]
246 to 248 °C | Cc1cc(NC(=O)C(=O)Nc2cc(C)c(S(=O)(=O)C[N+](=O)[O-])c(C)c2)cc(C)c1S(=O)(=O)C[N+](=O)[O-]
203 to 205 °C | O=C(CCCC(=O)Nc1ccc(S(=O)(=O)C[N+](=O)[O-])cc1)Nc1ccc(S(=O)(=O)C[N+](=O)[O-])cc1
118 to 120 °C | Cc1ccccc1S(=O)(=O)Nc1cc(C)c(S(=O)(=O)C[N+](=O)[O-])c(C)c1 [Example 45, N-[3,5-Dimethyl-4-[(nitromethyl)sulphonyl]phenyl]-2-methylbenzenesulphonamide]
168 to 170 °C | Cc1cc(NS(=O)(=O)CC(F)(F)F)cc(C)c1S(=O)(=O)C[N+](=O)[O-] [Example 23, N-[3,5-Dimethyl-4-[(nitromethyl)sulphonyl]phenyl]-2,2,2-trifluoroethanesulphonamide]
214 to 215 °C (dec.) | Cc1cc(NS(=O)(=O)c2ccc3oc4ccccc4c3c2)cc(C)c1S(=O)(=O)C[N+](=O)[O-] [Example 38, N-[3,5-Dimethyl-4-[(nitromethyl)sulphonyl]phenyl]-2-dibenzofuransulphonamide]
194 to 196 °C | Cc1ccccc1S(=O)(=O)NC(=O)Nc1cc(C)c(S(=O)(=O)C[N+](=O)[O-])c(C)c1 [Example 20, 1-[3,5-Dimethyl-4-[(nitromethyl)sulphonyl]phenyl]-3-[(2-methylphenyl)sulphonyl]urea]
191 to 192 °C | Cc1cc(NS(=O)(=O)c2cccnc2)cc(C)c1S(=O)(=O)C[N+](=O)[O-] [Example 47, N-[3,5-Dimethyl-4-[(nitromethyl)sulphonyl]phenyl]-3-pyridinesulphonamide]
163 to 165 °C | Cc1ccc(S(=O)(=O)Nc2cc(C)c(S(=O)(=O)C[N+](=O)[O-])c(C)c2)cc1 [Example 7, N-[3,5-Dimethyl-4-[(nitromethyl)sulphonyl]phenyl]-4-methylbenzenesulphonamide]
206 to 208 °C (dec.) | Cc1cc(NS(=O)(=O)c2ccc(-c3ccccc3)cc2)cc(C)c1S(=O)(=O)C[N+](=O)[O-] [Example 39, N-[3,5-Dimethyl-4-[(nitromethyl)sulphonyl]phenyl]-4-biphenylsulphonamide]
154 to 156 °C | Cc1cc(NS(=O)(=O)c2ccc(F)cc2F)cc(C)c1S(=O)(=O)C[N+](=O)[O-] [Example 8, 2,4-Difluoro-N-[3,5-dimethyl-4-[(nitromethyl)sulphonyl]phenyl]benzenesulphonamide]
166 to 168 °C | COc1cccc(S(=O)(=O)Nc2cc(C)c(S(=O)(=O)C[N+](=O)[O-])c(C)c2)c1 [Example 46, N-[3,5-Dimethyl-4-[(nitromethyl)sulphonyl]phenyl]-3-methoxybenzenesulphonamide]
112 to 114 °C | Cc1cc(NS(=O)(=O)c2ccccc2)cc(C)c1S(=O)(=O)C(Cl)(Cl)[N+](=O)[O-] [Example 33, N-[4-[(Dichloronitromethyl)sulphonyl]-3,5-dimethylphenyl]benzenesulphonamide]
235 to 238 °C | Cc1cc(NC(=O)CCCCCCC(=O)Nc2cc(C)c(S(=O)(=O)C[N+](=O)[O-])c(C)c2)cc(C)c1S(=O)(=O)C[N+](=O)[O-]
138 to 140 °C | Cc1cc(NS(C)(=O)=O)cc(C)c1S(=O)(=O)C[N+](=O)[O-] (as salt: acetate) [Example 40, N-[3,5-Dimethyl-4-[(nitromethyl)sulphonyl]phenyl]-methanesulphonamide]
207 to 210 °C | Cc1cc(NC(=O)CCCC(=O)Nc2cc(C)c(S(=O)(=O)C[N+](=O)[O-])c(C)c2)cc(C)c1S(=O)(=O)C[N+](=O)[O-]
209 to 210 °C | CC(=O)Nc1ccc(S(=O)(=O)Nc2cc(C)c(S(=O)(=O)C[N+](=O)[O-])c(C)c2)cc1 [Example 22, N-[4-[3,5-Dimethyl-4-[(nitromethyl)sulphonyl]phenylsulphamoyl]phenyl]acetamide]
146 to 148 °C | Cc1cc(NS(=O)(=O)c2cccc(C(F)(F)F)c2)cc(C)c1S(=O)(=O)C[N+](=O)[O-] [Example 9, N-[3,5-Dimethyl-4-[(nitromethyl)sulphonyl]phenyl]-3-(trifluoromethyl)benzenesulphonamide]
189 to 190 °C | Cc1cc(NS(=O)(=O)Cc2ccccc2[N+](=O)[O-])cc(C)c1S(=O)(=O)C[N+](=O)[O-]
